Patent US20240100045A1, “EMULSION COMPOSITION AND USES THEREOF IN THE PREVENTION AND/OR TREATMENT OF SKIN DAMAGE CAUSED BY RADIATION” (TARIAN PHARMA, priority 2021, published 2024)
Where two headings read alike, the source gives them in different places. Marks after values point to notes of the source that are not given here.

Legend:
[1] = system: alpha2-adrenergic receptors; conditions: alpha2 vs alpha1; cited from earlier work
[2] = Description: (§1) […] were prepared by adding an excess of drug substance to various solvents and storing the samples in sealed containers for 24 hours at room temperature with continuous stirring.
(§2) The majority of samples were stirred by a magnetic stirrer; however, in the case of viscous samples (e.g for pure glycerine), samples were stirred using a rotary mixer. The speed of the rotary mixer was adjusted to ensure proper mixing of the sample and this generally involved slower rotation speeds.
(§3) The chromatographic conditions are described below:• Column: Sunfire C18 150 mm×4.6 mm, 3.5 μm • Column temperature: 40° C. • Injection volume: […] • Flow rate: 0.8m1/minute • UV Detection: 246 nm

[3] = for saturation in the aqueous solvent phase of the primary formulation: prior to application
Description: as §1, §2, §3
Saturated solutions were prepared, incubated and measured as described in Example 1.

[4] = conditions not specified, cited from earlier work

## Brc1c(NC2=NCCN2)ccc2nccnc12 [Brimonidine]
[1]
  selectivity for alpha2-adrenergic receptors over alpha1-adrenergic receptors: 1,000 times

## brimonidine tartrate
[2]; glycerine vs propylene glycol
  solubility in glycerine relative to propylene glycol: twice
[2]; in ARLASOLVE DMI, 24 hours at room temperature
  Max Solubility % (w/w): 0.01 % (w/w)
[2]; in GLUCAM E10, peak degradation observed after reinjection T + 72 hours
  Max Solubility % (w/w): 0.72* % (w/w)
[2]; in GLUCAM E20, peak degradation observed after reinjection T + 72 hours
  Max Solubility % (w/w): 0.88* % (w/w)
[2]; in Glycerine (GLY, 20 ml scintillation bottle)
  Max Solubility % (w/w): 1.61 % (w/w)
[2]; in Hexylene Glycol
  Max Solubility % (w/w): 0.01 % (w/w)
[2]; in Na Pyrrolidone Carboxylate (Ajidew L50)
  Max Solubility % (w/w): 0.06 % (w/w)
[2]; in PEG-400
  Max Solubility % (w/w): 0.10 % (w/w)
[2]; in Propylene Carbonate, peak degradation observed after reinjection T + 24 hours
  Max Solubility % (w/w): 0.01** % (w/w)
[2]; in Propylene glycol, measured value
  Max Solubility % (w/w): 0.56 % (w/w)
[2]; in TRANSCUTOL, 24 hours at room temperature
  Max Solubility % (w/w): 0.05 % (w/w)
[2]; in WATER, measured value
  Max Solubility % (w/w): 6.40 % (w/w)
[2]; propylene glycol vs glycerine
  solubility capacity of PG relative to glycerine: 50%
[3]; PG/PEG-400/GLY/PVP (20:10:5:1) vs PG/PEG400/GLY/PVP/water (20:10:5:1:40)
  active agent solubilised by the non-volatile mixture compared to the aqueous mixture: approximately 22%
[3]; concentration of 1% brimonidine tartrate
  saturation in the aqueous solvent phase of the primary formulation: around 30%
[3]; concentration of 1.5% brimonidine tartrate
  saturation in the aqueous solvent phase of the primary formulation: ~50%
[3]; in PG/PEG-400 (20:10)
  Max Solubility % (w/w): 0.45 % (w/w)
[3]; in PG/PEG-400/GLY (20:10:5)
  Max Solubility % (w/w): 0.66 % (w/w)
[3]; in PG/PEG-400/GLY/(20:10:5:1)
  Max Solubility % (w/w): 0.72 % (w/w)
[3]; in PG/PEG-400/GLY/PVP/Water (20:10:5:1:40)
  Max Solubility % (w/w): 3.3 % (w/w)
[3]; in PG/PEG-400/PVP (20:10:1)
  Max Solubility % (w/w): 0.45 % (w/w)
[4]; in Propylene glycol, literature value (Product Monograph ALPHAGAN)
  Max Solubility % (w/w): ~0.1**** % (w/w)
[4]; in WATER, literature value
  Max Solubility % (w/w): 3.4*** % (w/w)
